Common to all, as to assay: NCI tumour cell line growth inhibition, 48 h
For experiment [1], the system named is MOLT-4.
Experiment [2] concerns OVCAR-3.
Experiment [3] deals with TK-10.
In experiment [4] the test system is A549.
The subject of experiment [5] is MDA-MB-435.
In experiment [6] the test system is M14.
Experiment [7] relates to SN12C.
Experiment [8] relates to HOP-62.
Experiment [9] concerns SF-295.
In experiment [10] the test system is COLO 205.
Experiment [11] relates to SW-620.
Experiment [12] relates to HCC 2998.
In experiment [13] the test system is NCI-H460.
The subject of experiment [14] is MCF7.
The test system of experiment [15] is LOX IMVI.
The subject of experiment [16] is MDA-N.
Experiment [17] has as its system UO-31.
For experiment [18], the system named is SK-OV-3.
Experiment [19] relates to NCI-H522.
Experiment [20] concerns K562.

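Cells were grown in 96-well plates and exposed to each compound for 48 hours at five concentrations; endpoints were interpolated linearly between bracketing concentrations, or set to the highest concentration if not reached. The concentration for 50% growth inhibition is given as GI50.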 Calls of active or inactive are those of the source. Cut-off read from the data, not from the text of the source: active = GI50 up to about 1.1 µM and inactive = higher. Some results are limits rather than exact numbers.

As to `CC(C)(C)OC(=O)NCCCNC1(c2cc3ccccc3s2)CCCCC1`, the GI50 in experiment [1] was 12.5 µM (inactive); in experiment [2], 13.8 µM (inactive); in experiment [3], 16.6 µM (inactive); in experiment [4], 12.6 µM (inactive); in experiment [5] it was 14.7 µM (inactive); in experiment [6], 12 µM (inactive). In addition, the GI50 in experiment [7] is 15.3 µM (inactive); in [8] it was 14.4 µM (inactive); in experiment [9] it was 14.8 µM (inactive); in experiment [10], 12.3 µM (inactive); in experiment [11] it was 15.5 µM (inactive); in [12], 3.56 µM (inactive). For the same compound, the GI50 in [13] was 14.3 µM (inactive); in experiment [14] it was 15.9 µM (inactive); in experiment [15], 16.8 µM (inactive); in [16] it was 15.1 µM (inactive); in [17], 12.6 µM (inactive); in [18], 13.2 µM (inactive). The values for the GI50 in [19] and in experiment [20] were 14.2 µM (inactive) and 10.5 µM (inactive), respectively.

Turning to `Nc1nc(SCC(=O)c2ccccc2)nc2nc3c(c(-c4ccccc4)c12)CCCC3`, the GI50 in experiment [1] is > 100 µM (inactive); in [2], 22.5 µM (inactive); in experiment [3] it was > 100 µM (inactive); in [4], 45.1 µM (inactive); in experiment [5] it was 32.6 µM (inactive); in experiment [6] it was 19.2 µM (inactive). Moreover, the GI50 in experiment [7] was 38.5 µM (inactive); in [8], 41.9 µM (inactive); in experiment [9], > 10 µM (inactive); in experiment [10] it was > 10 µM (inactive); in experiment [11] it was > 10 µM (inactive); in experiment [12], 33 µM (inactive). For the same compound, the GI50 in experiment [13] is 32.9 µM (inactive); in experiment [14], 47.8 µM (inactive); in [15], 24.8 µM (inactive); in experiment [16] it was 31.9 µM (inactive); in experiment [17], 12.4 µM (inactive); in [18], 4.71 µM (inactive). In addition, the GI50 is 31.2 µM (inactive) in experiment [19] and > 100 µM (inactive) in experiment [20].

Consider `C=CCN(c1cc(OCc2ccccc2)c2[nH]cc(C)c2c1)S(C)(=O)=O`, for which the GI50 in experiment [1] is 33.5 µM (inactive); in experiment [2], 25 µM (inactive); in experiment [3] it was 92.3 µM (inactive); in experiment [4], 34.7 µM (inactive); in experiment [5], 72.1 µM (inactive); in experiment [6] it was > 100 µM (inactive). The GI50 in experiment [7] is 51.3 µM (inactive); in [8] it was 39 µM (inactive); in experiment [9], 31.5 µM (inactive); in [10] it was > 100 µM (inactive); in experiment [11], > 100 µM (inactive); in experiment [12], > 100 µM (inactive). For the same compound, the GI50 in experiment [13] was 76.2 µM (inactive); in [14], 59.7 µM (inactive); in experiment [15], > 100 µM (inactive); in [16], 89.7 µM (inactive); in experiment [17] it was 41.8 µM (inactive); in [18], 37.3 µM (inactive). Moreover, the GI50 in experiment [19] was 37 µM (inactive); in [20] it was > 100 µM (inactive).

In the case of `COCC(/N=C\N1CCCc2ccccc2[C@@H]1CCCCl)C(C)(C)C` (stereo not given in full), the GI50 in experiment [1] is 1.71 µM (inactive); in [2], 0.209 µM (active); in [3], 9.93 µM (inactive); in [4] it was 13.4 µM (inactive); in [5] it was 11.7 µM (inactive); in [6] it was 4.55 µM (inactive). In addition, the GI50 is 17.1 µM (inactive) in [7]; 15.3 µM (inactive) in experiment [8]; 17.2 µM (inactive) in experiment [9]; 0.586 µM (active) in experiment [10]; 13 µM (inactive) in experiment [11]; 13.3 µM (inactive) in [12]. The GI50 is 35.7 µM (inactive) in [13]; 0.351 µM (active) in experiment [14]; 8.41 µM (inactive) in experiment [15]; 33.8 µM (inactive) in experiment [16]; 12.2 µM (inactive) in experiment [17]; 14.6 µM (inactive) in experiment [18]. Also, the results for the GI50 in experiment [19] and in [20] were 0.557 µM (active) and 0.512 µM (active), respectively.

`COC1/C=C\C=C(/C)C(=O)NC2=CC(=O)C(NCCCl)=C(CC(C)CC(OC)C(O)C(C)/C=C(/C)C1OC(N)=O)C2=O` (stereo not given): the GI50 in experiment [1] is 0.052 µM (active); in [2] it was 0.0853 µM (active); in experiment [3], 1.77 µM (inactive); in experiment [4], 0.53 µM (active); in experiment [5], 0.0526 µM (active); in experiment [6], 0.0724 µM (active). Moreover, the GI50 in experiment [7] is 0.069 µM (active); in experiment [8], 0.339 µM (active); in experiment [9], 0.743 µM (active); in [10], < 0.0126 µM (active); in [11] it was 0.0161 µM (active); in experiment [12], 0.101 µM (active). Besides, the GI50 in [13] was 0.0991 µM (active); in experiment [14], 0.0333 µM (active); in [15], 0.0857 µM (active); in experiment [16] it was 0.332 µM (active); in [17], 0.728 µM (active); in experiment [18], 0.117 µM (active). Besides, the GI50 in experiment [19] was 0.0219 µM (active); in experiment [20] it was 0.0236 µM (active).

As to `CC#CC#C/C=C1/O[C@]2(CCC(OC(C)=O)CO2)[C@@H]2O[C@H]12` (stereo not given in full), the GI50 is 17 µM (inactive) in experiment [1]; 29.4 µM (inactive) in experiment [2]; 39.5 µM (inactive) in [3]; 29.6 µM (inactive) in experiment [4]; 22.1 µM (inactive) in experiment [5]; 18.4 µM (inactive) in experiment [6]. For the same compound, the GI50 in experiment [7] was 20.6 µM (inactive); in [8], 37.2 µM (inactive); in experiment [9], 35.4 µM (inactive); in experiment [10] it was 15.1 µM (inactive); in [11], 25.7 µM (inactive); in [12], 18.5 µM (inactive). Besides, the GI50 was 18.1 µM (inactive) in experiment [13]; 26.5 µM (inactive) in [14]; 15.1 µM (inactive) in experiment [15]; 28.2 µM (inactive) in [16]; 20.1 µM (inactive) in experiment [17]; 51.9 µM (inactive) in experiment [18]. Besides, the figures for the GI50 in [19] and in [20] were 15.3 µM (inactive) and 29.4 µM (inactive), respectively.

For `CC(C)(C)N1Cc2ccccc2/C(=C/Sc2ccccc2)C1=O`, the GI50 was 3.21 µM (inactive) in experiment [1]; 12 µM (inactive) in experiment [2]; 19 µM (inactive) in experiment [3]; 16.2 µM (inactive) in experiment [4]; 7.38 µM (inactive) in experiment [5]; 8.15 µM (inactive) in [6]. Further, the GI50 in experiment [7] is 8.17 µM (inactive); in experiment [8] it was 17.3 µM (inactive); in [9] it was 17.4 µM (inactive); in [10], 18.1 µM (inactive); in experiment [11] it was 7.21 µM (inactive); in experiment [12], 18.2 µM (inactive). Moreover, the GI50 in [13] was 14.9 µM (inactive); in [14], 7.19 µM (inactive); in experiment [15] it was 2.64 µM (inactive); in experiment [16], 6.55 µM (inactive); in experiment [17], 12.3 µM (inactive); in experiment [18], 17.4 µM (inactive). Moreover, the GI50 in experiment [19] is 2.75 µM (inactive); in experiment [20] it was 5.85 µM (inactive).

For the compound `COc1c2c(cc3nc4ccccc4nc13)CC[C@H](NC(C)=O)c1cc(=O)c(SC)ccc1-2`, the GI50 in experiment [1] is 0.555 µM (active); in [2] it was 0.785 µM (active); in [3], 8.07 µM (inactive); in [4], 4.29 µM (inactive); in experiment [5], 0.132 µM (active); in [6], 0.55 µM (active). For the same compound, the GI50 was 2.79 µM (inactive) in experiment [7]; 11.9 µM (inactive) in experiment [8]; 1.17 µM (inactive) in [9]; 0.283 µM (active) in [10]; 0.582 µM (active) in experiment [11]; 1.25 µM (inactive) in experiment [12]. Also, the GI50 in [13] is 0.933 µM (active); in [14] it was 0.327 µM (active); in experiment [15], 0.755 µM (active); in [16] it was 0.18 µM (active); in experiment [17] it was 5.09 µM (inactive); in experiment [18] it was 5.28 µM (inactive). Also, the GI50 in experiment [19] is 0.275 µM (active); in experiment [20], 0.29 µM (active).

As to `COc1ccc2c(c1OC)CN1CCc3cc4c(cc3C1C2)OCO4` (stereo not given) [TETRAHYDROBERBERINE], the GI50 in experiment [1], in experiment [2], in [3], in experiment [4], in experiment [5] and in [6] was > 100 µM (inactive) each time. The GI50 in [7], in [8], in [9], in experiment [10], in experiment [11] and in experiment [12] was > 100 µM (inactive) in each case. For the same compound, the GI50 in experiment [13] is 61 µM (inactive); in [14], > 100 µM (inactive); in experiment [15] it was > 100 µM (inactive); in experiment [16], > 100 µM (inactive); in experiment [17], > 100 µM (inactive); in experiment [18], > 100 µM (inactive). The GI50 was > 100 µM (inactive) in [19] and 80 µM (inactive) in experiment [20].

`Nc1ncnc2c1ncn2C1OC(CO)C2OC21` (stereo not given): the GI50 in experiment [1] was > 100 µM (inactive); in experiment [2], > 10 µM (inactive); in experiment [3], > 100 µM (inactive); in experiment [4], > 100 µM (inactive); in experiment [5], > 10 µM (inactive); in experiment [6], > 10 µM (inactive). For the same compound, the GI50 in experiment [7], in experiment [8], in experiment [9], in [10], in experiment [11] and in [12] was > 100 µM (inactive) in each case. Further, the GI50 in experiment [13] is > 10 µM (inactive); in experiment [14], > 100 µM (inactive); in experiment [15] it was > 100 µM (inactive); in [16], > 10 µM (inactive); in experiment [17] it was > 100 µM (inactive); in experiment [18], > 100 µM (inactive). In addition, the GI50 in experiment [19] is > 100 µM (inactive); in experiment [20] it was 72.8 µM (inactive).
